Values quoted from earlier work in US6548270B1, “DNA encoding human acid-sensing ion channel BNaC4 (ASIC4)” (Ortho-McNeil Pharmaceutical, Inc., priority 2000, dated 2003).
pIC50, pKd: −log10 of the molar value.

Experiments:
[1] = target: T1, ASIC1A (Rattus norvegicus, UniProt P55926); details: read-out: Amiloride sensitivity, KD; cited from earlier work
T1 sequence (P55926 1-526): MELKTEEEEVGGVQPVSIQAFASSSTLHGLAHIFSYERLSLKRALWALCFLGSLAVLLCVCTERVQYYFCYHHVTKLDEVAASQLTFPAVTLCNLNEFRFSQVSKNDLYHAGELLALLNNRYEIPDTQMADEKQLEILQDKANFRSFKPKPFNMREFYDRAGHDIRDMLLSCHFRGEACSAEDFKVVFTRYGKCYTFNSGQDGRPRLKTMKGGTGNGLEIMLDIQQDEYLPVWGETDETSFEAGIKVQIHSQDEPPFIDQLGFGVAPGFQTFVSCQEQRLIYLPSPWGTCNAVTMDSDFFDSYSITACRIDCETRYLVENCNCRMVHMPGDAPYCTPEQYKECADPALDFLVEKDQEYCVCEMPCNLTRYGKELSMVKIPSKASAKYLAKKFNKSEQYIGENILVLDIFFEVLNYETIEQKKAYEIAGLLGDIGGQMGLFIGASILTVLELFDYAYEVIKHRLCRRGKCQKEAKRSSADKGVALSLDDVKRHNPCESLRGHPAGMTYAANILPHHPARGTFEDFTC

[2] = target: T2, ASIC1B (Rattus norvegicus, UniProt P55926); details: read-out: Amiloride sensitivity, IC50; cited from earlier work
T2 sequence (P55926 1-559 isoform P55926-3): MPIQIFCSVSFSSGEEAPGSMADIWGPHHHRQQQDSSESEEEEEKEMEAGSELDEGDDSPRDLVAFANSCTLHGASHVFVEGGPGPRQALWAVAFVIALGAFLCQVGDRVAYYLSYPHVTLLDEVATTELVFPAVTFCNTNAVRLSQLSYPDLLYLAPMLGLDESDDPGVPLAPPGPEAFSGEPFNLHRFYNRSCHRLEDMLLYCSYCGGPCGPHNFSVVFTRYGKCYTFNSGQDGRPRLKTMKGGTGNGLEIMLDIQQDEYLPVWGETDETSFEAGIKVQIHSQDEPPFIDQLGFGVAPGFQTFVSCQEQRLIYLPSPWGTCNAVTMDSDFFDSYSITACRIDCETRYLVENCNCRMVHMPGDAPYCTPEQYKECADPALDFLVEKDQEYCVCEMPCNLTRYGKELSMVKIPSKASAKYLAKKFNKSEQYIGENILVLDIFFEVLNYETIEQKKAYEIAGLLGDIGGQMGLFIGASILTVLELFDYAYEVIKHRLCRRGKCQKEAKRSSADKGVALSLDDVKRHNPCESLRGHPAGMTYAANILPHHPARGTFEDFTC

N=C(N)NC(=O)c1nc(Cl)c(N)nc1N [amiloride]
pKd [1]: ~5.00
pIC50 [2]: 4.68
